The subject of assay [1] is S. aureus Col8A(Meth^S)(lac^-). Briefly: In vitro MIC, agar dilution. As to conditions: Staphylococcus aureus; S. aureus Col8A(Meth^S)(lac^-); read-out: minimum inhibitory concentration (MIC). Type of assay: cell-based. In a few lines:
(§1)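 Two-fold dilutions (128 to ≤0.25 μg/mL, in duplicate) were poured into Mueller-Hinton agar. Log-phase broth cultures were spot-inoculated at about 10^4 cfu per spot and incubated 35-36°C for 16-20 hours; the MIC was the lowest concentration inhibiting growth. Col is a high-level PBP2a producer; Col 8A is its isogenic PBP2a-lacking partner.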
In general terms: In agar dilution, organisms are placed on agar that contains the substance at set levels.

Assay [2] has as its system S. aureus Col(Meth^R)(lac^-). Briefly: In vitro MIC, agar dilution. Type of assay: cell-based. Conditions: Staphylococcus aureus, read-out: minimum inhibitory concentration (MIC). In a few lines: as §1
In another assay the test system is E. faecium ATCC 35667. Briefly: In vitro MIC, agar dilution. Conditions: Enterococcus faecium, ATCC35667, read-out: minimum inhibitory concentration (MIC). Type of assay: cell-based. In a few lines: (§2)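 Agar dilution on Mueller-Hinton plates: spots of roughly 10^4 cfu of log-phase bacteria were placed on agar containing serial two-fold compound dilutions, from a 128 μg/mL top working level to ≤0.25 μg/mL, each in duplicate. After 16-20 hours at 35-36° C, the lowest growth-inhibiting concentration was taken as the MIC.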

A further assay deals with E. faecium A491(Amp^R). Briefly: In vitro MIC, agar dilution. Type of assay: cell-based. Conditions: Enterococcus faecium, read-out: minimum inhibitory concentration (MIC). In a few lines:
as §2

The subject of a further assay is E. coli ATCC 25992. The assay is described as follows: In vitro MIC, agar dilution. Type of assay: cell-based. As to conditions: Escherichia coli, ATCC25992, read-out: minimum inhibitory concentration (MIC). Put shortly:
as §2

Another assay relates to P. aeruginosa ATCC 27853. Briefly: In vitro MIC, agar dilution. Type of assay: cell-based. As to conditions: Pseudomonas aeruginosa, ATCC27853, read-out: minimum inhibitory concentration (MIC). Put shortly:
as §2

In assay [3] the test system is S. haemolyticus 05(Meth^R). Briefly: In vitro MIC, agar dilution. The assay is classed as cell-based. As to conditions: Staphylococcus haemolyticus, read-out: minimum inhibitory concentration (MIC). In a few lines:
as §2

Assay [4] relates to S. aureus Spain #356(Meth^R). Briefly: In vitro MIC, agar dilution. Type of assay: cell-based. Conditions: Staphylococcus aureus, read-out: minimum inhibitory concentration (MIC). Put shortly: as §2
A further assay relates to E. faecalis ATCC 29212. The assay is described as follows: In vitro MIC, agar dilution. The assay is classed as cell-based. Conditions: Enterococcus faecalis, ATCC29212, read-out: minimum inhibitory concentration (MIC). In a few lines: as §2
In assay [5] the test system is S. aureus PC1(Meth^S)(lac^+). Briefly: In vitro MIC, agar dilution. Conditions: Staphylococcus aureus, read-out: minimum inhibitory concentration (MIC). Type of assay: cell-based. Put shortly:
as §2

A further assay concerns E. faecalis VanB(Van^R). Briefly: In vitro MIC, agar dilution. Type of assay: cell-based. Conditions: Enterococcus faecalis, read-out: minimum inhibitory concentration (MIC). Put shortly:
as §2

A further assay concerns E. faecium VanA(Van^R). Briefly: In vitro MIC, agar dilution. The assay is classed as cell-based. As to conditions: Enterococcus faecium, read-out: minimum inhibitory concentration (MIC). Put shortly: as §2
Assay [6] deals with S. aureus ATCC 13709(Meth^S). Briefly: In vitro MIC, agar dilution. Type of assay: cell-based. Conditions: Staphylococcus aureus, ATCC13709, S. aureus ATCC 13709(Meth^S); read-out: minimum inhibitory concentration (MIC). Put shortly:
as §2

Assay [7] concerns S. aureus 76(Meth^R)(lac^+). The assay is described as follows: In vitro MIC, agar dilution. Conditions: Staphylococcus aureus, read-out: minimum inhibitory concentration (MIC). Type of assay: cell-based. In a few lines: as §2
Assay [8] deals with S. aureus ATCC 33593(Meth^R). Briefly: In vitro MIC, agar dilution. The assay is classed as cell-based. Conditions: Staphylococcus aureus, ATCC33593, read-out: minimum inhibitory concentration (MIC). Put shortly: as §2
The test system of the next assay is S. aureus ATCC 29213. Briefly: In vitro MIC, agar dilution. The assay is classed as cell-based. As to conditions: Staphylococcus aureus, ATCC29213, read-out: minimum inhibitory concentration (MIC). Put shortly: as §2
In assay [9] the test system is S. aureus strain ATCC 13709 (methicillin-susceptible). Briefly: Murine model for lethal bacteremic peritonitis. Conditions: Staphylococcus aureus, ATCC13709, SC, 72 h. Type of assay: in vivo, female Swiss-Webster mice. In a few lines: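 Female Swiss-Webster mice were challenged IP with an LD100 inoculum in 7% hog gastric mucin, then given test drug subcutaneously in twofold increments (0.01–512 mg/kg) as two equal doses at challenge and 2 h later, 10 mice per group. Survival was scored at 72 h; PD50 (total mg/kg) was derived by probit.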

Structures are written as SMILES. Structures can show the parent of a compound that is named as a salt.

`N=C(N)SCc1ncsc1SC1=C(C(=O)O)N2C(=O)[C@@H](NC(=O)Cc3ccccc3)[C@H]2SC1` [Cmpd 5, (7R)-7-[(phenylacetyl)amino]-3-(4-isothioureidomethylthiazol-5-ylthio)-3-cephem-4-carboxylate, trifluoroacetic acid salt]: the MIC was no more than 0.06 µg/mL in assay [1]; 8 µg/mL in [2]; 4 µg/mL with E. faecium ATCC 35667; greater than 32 µg/mL with E. faecium A491(Amp^R); greater than 32 µg/mL in the assay with E. coli ATCC 25992; greater than 32 µg/mL in the assay on P. aeruginosa ATCC 27853. Also, the MIC in assay [3] came out at 16 µg/mL; in [4] it was 16 µg/mL; in the assay on E. faecalis ATCC 29212, 2 µg/mL; in assay [5] it was 0.25 µg/mL; with E. faecalis VanB(Van^R), 4 µg/mL; with E. faecium VanA(Van^R) it was 32 µg/mL. In addition, the MIC in assay [6] was no more than 0.06 µg/mL; in [7] it was 16 µg/mL; in [8], 16 µg/mL; with S. aureus ATCC 29213, 0.13 µg/mL.

Turning to `O=C(Cc1ccccc1)N[C@@H]1C(=O)N2C(C(=O)O)=C(Sc3snnc3CSC3CCNC3)CS[C@H]12` (stereo partly drawn) [Cmpd 6, (7R)-7-[(phenylacetyl)amino]-3-[4-(3-pyrrolidinothiomethyl)-1,2,3-thiadiazol-5-ylthio]-3-cephem-4-carboxylate, trifluoroacetic acid salt], the MIC in [1] was 0.13 µg/mL; in assay [2], 2 µg/mL; in the assay on E. faecium ATCC 35667 it was 2 µg/mL; in the assay on E. faecium A491(Amp^R), greater than 32 µg/mL; in the assay with E. coli ATCC 25992 it was greater than 32 µg/mL; with P. aeruginosa ATCC 27853, greater than 32 µg/mL. For the same molecule, the MIC in assay [3] stood at 16 µg/mL; in assay [4], 8 µg/mL; in the assay on E. faecalis ATCC 29212 it was 0.5 µg/mL; in assay [5], 0.5 µg/mL; in the assay on E. faecalis VanB(Van^R), 8 µg/mL; with E. faecium VanA(Van^R) it was 8 µg/mL. Moreover, the MIC in [6] is no more than 0.06 µg/mL; in assay [7], 8 µg/mL; in assay [8], 8 µg/mL; with S. aureus ATCC 29213, 0.25 µg/mL.

Take `N=C(N)SCc1ncsc1SC1=C(C(=O)O)N2C(=O)[C@@H](NC(=O)/C(=N\O)c3csc(N)n3)[C@H]2SC1` [Cmpd 7, (7R)-7-[(Z)-2-(aminothiazol-4-yl)-2-(hydroxyimino)acetamido]-3-(4-isothioureidomethylthiazol-5-ylthio)-3-cephem-4-carboxylate, trifluoroacetic acid salt]: the MIC is 0.5 µg/mL in [1]; 8 µg/mL in assay [2]; 4 µg/mL in the assay on E. faecium ATCC 35667; greater than 32 µg/mL with E. faecium A491(Amp^R); 4 µg/mL with E. coli ATCC 25992; greater than 32 µg/mL in the assay on P. aeruginosa ATCC 27853. Also, the MIC was 32 µg/mL in [3]; 8 µg/mL in assay [4]; 1 µg/mL with E. faecalis ATCC 29212; 2 µg/mL in assay [5]; 2 µg/mL with E. faecalis VanB(Van^R); 16 µg/mL with E. faecium VanA(Van^R). The MIC in assay [6] amounted to 0.5 µg/mL; in [7], 8 µg/mL; in assay [8] it was 8 µg/mL; in the assay on S. aureus ATCC 29213, 0.5 µg/mL.

For the molecule `NCCSCc1cnccc1SC1=C(C(=O)O)N2C(=O)[C@@H](NC(=O)Cc3ccccc3)[C@H]2SC1.O=C(O)C(F)(F)F` [Cmpd 9, (7R)-7-[(phenylacetyl)amino]-3-(3-aminoethylthiomethylpyrid-4-ylthio)-3-cephem-4-carboxylate, trifluoroacetic acid salt], the MIC in [1] was 0.13 µg/mL; in assay [2], 1 µg/mL; in the assay on E. faecium ATCC 35667, 1 µg/mL; with E. faecium A491(Amp^R) it was greater than 32 µg/mL; in the assay with E. coli ATCC 25992 it was greater than 32 µg/mL; with P. aeruginosa ATCC 27853, greater than 32 µg/mL. Further, the MIC came to 16 µg/mL in [3]; 4 µg/mL in assay [4]; 1 µg/mL in the assay with E. faecalis ATCC 29212; 1 µg/mL in assay [5]; 2 µg/mL in the assay on E. faecalis VanB(Van^R); 4 µg/mL with E. faecium VanA(Van^R). Also, the MIC in assay [6] is no more than 0.06 µg/mL; in assay [7], 4 µg/mL; in [8], 4 µg/mL; with S. aureus ATCC 29213, 0.25 µg/mL.

In the case of `NCCSCc1cnccc1SC1=C(C(=O)O)N2C(=O)[C@@H](NC(=O)/C(=N\O)c3nc(N)sc3Br)[C@H]2SC1.O=C(O)C(F)(F)F` [Cmpd 21, (7R)-7-[(Z)-2-(2-amino-5-bromothiazol-4-yl)-2-(hydroxyimino)acetamido]-3-(3-aminoethylthiomethylpyrid-4-ylthio)-3-cephem-4-carboxylate, trifluoroacetic acid salt], the MIC in assay [1] is 0.25 µg/mL; in assay [2] it was 1 µg/mL; in the assay with E. faecium ATCC 35667, 0.5 µg/mL; with E. faecium A491(Amp^R), 8 µg/mL; in the assay on E. coli ATCC 25992 it was 32 µg/mL; in the assay on P. aeruginosa ATCC 27853 it was greater than 32 µg/mL. For the same molecule, the MIC in assay [3] was 2 µg/mL; in assay [4], 1 µg/mL; in the assay on E. faecalis ATCC 29212, 0.13 µg/mL; in assay [5] it was 0.5 µg/mL; with E. faecalis VanB(Van^R), 0.13 µg/mL; with E. faecium VanA(Van^R), 1 µg/mL. In addition, the MIC in assay [6] stood at 1 µg/mL; in assay [7], 1 µg/mL; in assay [8], 1 µg/mL; in the assay with S. aureus ATCC 29213 it was 0.25 µg/mL.

For orientation: ED50 means the dose at which the effect has come halfway, by size or by number of responders. For the molecule `Nc1nc(/C(=N/O)C(=O)N[C@@H]2C(=O)N3C(C(=O)O)=C(Sc4ccncc4CSC[C@H](N)CO)CS[C@H]23)c(Cl)s1` [Cmpd 65, (7R)-7-[(Z)-2-(2-amino-5-chlorothiazol-4-yl)-2-(hydroxyimino)acetamido]-3-[3-(2R-2-amino-3-hydroxyprop-1-ylthiomethyl)pyrid-4-ylthio]-3-cephem-4-carboxylate, trifluoroacetic acid salt], the MIC in assay [1] was 0.5 µg/mL; in assay [2], 2 µg/mL; in the assay with E. faecium A491(Amp^R) it was 16 µg/mL; with E. coli ATCC 25992 it was 16 µg/mL; with P. aeruginosa ATCC 27853, greater than 32 µg/mL; in [3], 4 µg/mL. In addition, the MIC in [4] was determined as 4 µg/mL; with E. faecalis ATCC 29212, 0.25 µg/mL; in assay [5], 1 µg/mL; in the assay on E. faecalis VanB(Van^R), 0.5 µg/mL; in the assay on E. faecium VanA(Van^R), 2 µg/mL; in assay [6], 0.5 µg/mL. For the same molecule, the MIC in [7] is 4 µg/mL; in assay [8], 4 µg/mL; with S. aureus ATCC 29213, 0.5 µg/mL. In addition, the responders at 0.3125 mg/kg in assay [9] (Dose 0.3125 mg/kg, read-out: Survivors) came out at 10%. Moreover, the responders at 0.625 mg/kg in assay [9] (Dose 0.625 mg/kg, read-out: Survivors) was determined as 20%. Further, the responders at 1.25 mg/kg in assay [9] (Dose 1.25 mg/kg, read-out: Survivors (converted)) was 10%. The responders at 2.5 mg/kg in assay [9] (Dose 2.5 mg/kg, read-out: Survivors) worked out at 30%. The responders at 5 mg/kg in assay [9] (Dose 5 mg/kg, read-out: Survivors) was found to be 80%. In addition, in assay [9] (two equal doses, IP challenge, read-out: ED50), the ED50 came to 3.1 mg/kg.

The values are drawn from US6087355A, “Cephalosporin antibiotics” (Microcide Pharmaceuticals, Inc., priority 1996, dated 2000).
